≈ marks a conversion by molar mass, not a printed value. Like-named read-outs stand apart in the source and are kept apart here.
Assays:
Format in all cases: cell-based
[1] = system: Trichophyton metagrophytes 530324; test: Antifungal Activity MIC (in medicinal field); conditions: read-out: Minimal Inhibitory Concentration (MIC)
[2] = system: Cryptococcus neoformans Cr-1; test: Antifungal Activity MIC (in medicinal field); conditions: CR1, read-out: Minimal Inhibitory Concentration (MIC)
[3] = system: Aspergillus fumigatus Saito; test: Antifungal Activity MIC (in medicinal field); conditions: read-out: Minimal Inhibitory Concentration (MIC)
Candida albicans GA-24 = test: Antifungal Activity MIC (in medicinal field); conditions: GA24, read-out: Minimal Inhibitory Concentration (MIC)
[4] = system: Trichophyton interdigitale; test: Antifungal Activity MIC (in medicinal field); conditions: read-out: Minimal Inhibitory Concentration (MIC)
[5] = system: Pseudomonas maltiophilia M-0627; test: Minimal Inhibitory Concentration Method; conditions: M0627, read-out: Minimal Inhibitory Conc.
[6] = system: Bacillus anthracis No. 119; test: microbe, parasite or virus in culture; conditions: NO.119, read-out: Minimal Inhibitory Conc.
Proteus vulgaris OX-19 = test: Minimal Inhibitory Concentration Method
[7] = system: Pseudomonas cepacia M-0527; test: Minimal Inhibitory Concentration Method; conditions: Burkholderia cepacia, M0527, read-out: Minimal Inhibitory Conc.
[8] = system: Staphylococcus aureus 209P JC-1; test: Minimal Inhibitory Concentration Method; conditions: read-out: Minimal Inhibitory Conc.
[9] = system: Serratia marcescens MB-3848; test: Minimal Inhibitory Concentration Method
[10] = system: Escherichia coli NIHJ JC-2; test: Minimal Inhibitory Concentration Method; conditions: NIHJJC2, read-out: Minimal Inhibitory Conc.
[11] = system: Klebsiella pneumoniae PCI 602; test: Minimal Inhibitory Concentration Method; conditions: PCI602, read-out: Minimal Inhibitory Conc.
[12] = system: Shigella sonnei EW 33 type I; test: Minimal Inhibitory Concentration Method; conditions: EW33TYPEI, read-out: Minimal Inhibitory Conc.
From the text: (Minimal Inhibitory Concentration Method)
Minimal Inhibitory Conc. (mcg/ml)

Salmonella typhi 0-901-W = test: Minimal Inhibitory Concentration Method; conditions: Salmonella enterica, read-out: Minimal Inhibitory Conc.
Shigella dysenteriae = test: Minimal Inhibitory Concentration Method; conditions: read-out: Minimal Inhibitory Conc.
[13] = system: Staphylococcus epidermidis ATCC 14990; test: Minimal Inhibitory Concentration Method; conditions: ATCC14990, read-out: Minimal Inhibitory Conc.
[14] = system: Bacillus subtilis ATCC 6633; test: Minimal Inhibitory Concentration Method; conditions: ATCC6633, read-out: Minimal Inhibitory Conc.
Escherichia coli No. 29 = test: Minimal Inhibitory Concentration Method; conditions: read-out: Minimal Inhibitory Conc.

Oc1ccc(-c2nnnn2CC#CI)cc1 [Compound No. 35, 1-(1'-iodopropyn-3'-yl)-5-(p-hydroxyphenyl)tetrazole]
MIC [1]: 0.1 µg/mL (≈ 0.307 µM) | MIC [2]: 0.39 µg/mL (≈ 1.2 µM) | MIC [3]: 100 µg/mL (≈ 307 µM) | MIC (Candida albicans GA-24): 1.56 µg/mL (≈ 4.78 µM) | MIC [4]: 0.1 µg/mL (≈ 0.307 µM)

CC(C)c1nnn(CC#CI)n1 [Compound No. 7, 2-(1'-iodopropyn-3'-yl)-5-isopropyltetrazole]
MIC [5]: 50 µg/mL (≈ 181 µM) | MIC [1]: ≤ 0.05 µg/mL | MIC [2]: 0.78 µg/mL (≈ 2.83 µM) | MIC [3]: ≤ 0.05 µg/mL | MIC [6]: 12.5 µg/mL (≈ 45.3 µM) | MIC (Proteus vulgaris OX-19; Proteus vulgaris, OX19, read-out: Minimal Inhibitory Conc.): 12.5 µg/mL (≈ 45.3 µM) | MIC (Candida albicans GA-24): ≤ 0.05 µg/mL | MIC [7]: > 100 µg/mL | MIC ([8]; Staphylococcus aureus, 209P): 12.5 µg/mL (≈ 45.3 µM) | MIC ([9]; MB3848, Serratia marcescens MB-3848, read-out: Minimal Inhibitory Conc.): 25 µg/mL (≈ 90.6 µM) | MIC [10]: 25 µg/mL (≈ 90.6 µM) | MIC [11]: 100 µg/mL (≈ 362 µM) | MIC [4]: ≤ 0.05 µg/mL | MIC [12]: 6.25 µg/mL (≈ 22.6 µM) | MIC (Salmonella typhi 0-901-W): 25 µg/mL (≈ 90.6 µM)

Clc1ccc(-c2nnnn2CC#CI)cc1 [Compound No. 26, 1-(1'-Iodopropyn-3'-yl)-5-(p-chlorophenyl)tetrazole]
MIC [1]: < 0.04 µg/mL | MIC [2]: 0.78 µg/mL (≈ 2.26 µM) | MIC [3]: 0.78 µg/mL (≈ 2.26 µM) | MIC (Candida albicans GA-24): 0.78 µg/mL (≈ 2.26 µM) | MIC [4]: 0.19 µg/mL (≈ 0.551 µM)

Cc1nnn(CC#CI)n1 [Compound No. 1, 2-(1'-iodopropyn-3'-yl)-5-methyltetrazole]
MIC [1]: 3.12 µg/mL (≈ 12.6 µM) | MIC [2]: 3.12 µg/mL (≈ 12.6 µM) | MIC [3]: 6.25 µg/mL (≈ 25.2 µM) | MIC (Candida albicans GA-24): 6.25 µg/mL (≈ 25.2 µM) | MIC [4]: 6.25 µg/mL (≈ 25.2 µM)

O=[N+]([O-])c1ccc(-c2nnn(CC#CI)n2)cc1 [Compound No. 37, 2-(1'-iodopropyn-3'-yl)-5-(p-nitrophenyl)tetrazole]
MIC [1]: < 0.04 µg/mL | MIC [2]: 3.13 µg/mL (≈ 8.81 µM) | MIC [3]: 6.25 µg/mL (≈ 17.6 µM) | MIC (Candida albicans GA-24): 25 µg/mL (≈ 70.4 µM) | MIC [4]: 0.39 µg/mL (≈ 1.1 µM)

CCCCCc1nnn(CC(I)=C(I)I)n1 [Compound No. 42, 2-(2',3',3'-triiodoallyl)-5-n-pentyltetrazole]
MIC [1]: 0.09 µg/mL (≈ 0.161 µM) | MIC [2]: 0.78 µg/mL (≈ 1.4 µM) | MIC [3]: 0.78 µg/mL (≈ 1.4 µM) | MIC (Candida albicans GA-24): 3.13 µg/mL (≈ 5.61 µM) | MIC [4]: 0.19 µg/mL (≈ 0.341 µM)

COc1ccc(-c2nnn(CC#CI)n2)cc1 [Compound No. 24, 2-(1'-Iodopropyn-3'-yl)-5-(p-methoxyphenyl)tetrazole]
MIC [1]: ≤ 0.05 µg/mL | MIC [2]: 50 µg/mL (≈ 147 µM) | MIC [3]: 1.56 µg/mL (≈ 4.59 µM) | MIC (Candida albicans GA-24): 12.5 µg/mL (≈ 36.8 µM) | MIC [4]: 0.09 µg/mL (≈ 0.265 µM)

CCCCCc1nnn(CC#CI)n1 [Compound No. 17, 2-(1'-iodopropyn-3'-yl)-5-pentyltetrazole]
MIC [1]: ≤ 0.05 µg/mL | MIC [2]: 3.13 µg/mL (≈ 10.3 µM) | MIC [3]: 0.39 µg/mL (≈ 1.28 µM) | MIC (Candida albicans GA-24): 3.13 µg/mL (≈ 10.3 µM) | MIC [4]: 0.09 µg/mL (≈ 0.296 µM)

Cc1nnnn1CC#CI [Compound No. 2, 1-(1'-Iodopropyn-3'-yl)-5-methyltetrazole]
MIC [1]: 0.78 µg/mL (≈ 3.14 µM) | MIC [2]: 0.78 µg/mL (≈ 3.14 µM) | MIC [3]: 0.75 µg/mL (≈ 3.02 µM) | MIC (Candida albicans GA-24): 1.56 µg/mL (≈ 6.29 µM) | MIC [4]: 0.78 µg/mL (≈ 3.14 µM)

CCCCCCCc1nnn(CC(I)=C(I)I)n1 [Compound No. 40, 2-(2',3',3'-triiodoallyl)-5-n-heptyltetrazole]
MIC [1]: 0.78 µg/mL (≈ 1.33 µM) | MIC [2]: 6.25 µg/mL (≈ 10.7 µM) | MIC [3]: 6.25 µg/mL (≈ 10.7 µM) | MIC (Candida albicans GA-24): 6.25 µg/mL (≈ 10.7 µM) | MIC [4]: 0.78 µg/mL (≈ 1.33 µM)

CCCCCc1nnnn1CC(I)=C(I)I [Compound No. 43, 1-(2',3',3'-triiodoallyl)-5-n-pentyltetrazole]
MIC [1]: 0.09 µg/mL (≈ 0.161 µM) | MIC [2]: 50 µg/mL (≈ 89.6 µM) | MIC [3]: 0.39 µg/mL (≈ 0.699 µM) | MIC (Candida albicans GA-24): 12.5 µg/mL (≈ 22.4 µM) | MIC [4]: ≤ 0.05 µg/mL

CC(C)c1nnn(CC(I)=C(I)I)n1 [Compound No. 48, 2-(2',3',3'-triiodoallyl)-5-isopropyltetrazole]
MIC [1]: 0.78 µg/mL (≈ 1.47 µM) | MIC (Shigella dysenteriae): 3.13 µg/mL (≈ 5.91 µM) | MIC [2]: 12.5 µg/mL (≈ 23.6 µM) | MIC [3]: 3.13 µg/mL (≈ 5.91 µM) | MIC [13]: 0.39 µg/mL (≈ 0.736 µM) | MIC (Proteus vulgaris OX-19; OX19, Proteus vulgaris OX-19, read-out: Minimal Inhibitory Conc.): 6.25 µg/mL (≈ 11.8 µM) | MIC (Candida albicans GA-24): 12.5 µg/mL (≈ 23.6 µM) | MIC [7]: 6.25 µg/mL (≈ 11.8 µM) | MIC [14]: 0.39 µg/mL (≈ 0.736 µM) | MIC ([8]; Staphylococcus aureus 209P JC-1): 1.56 µg/mL (≈ 2.94 µM) | MIC ([9]; Serratia marcescens, MB3848, read-out: Minimal Inhibitory Conc.): 12.5 µg/mL (≈ 23.6 µM) | MIC (Escherichia coli No. 29): 6.25 µg/mL (≈ 11.8 µM) | MIC [4]: 0.78 µg/mL (≈ 1.47 µM) | MIC (Salmonella typhi 0-901-W): 12.5 µg/mL (≈ 23.6 µM)

Source: US4647572A, “Iodoallyl and iodopropargyl substituted tetrazoles and anti-microbial compositions thereof” (Meiji Seika Kaisha, Ltd., priority 1982, dated 1987)
